In ChEMBL document CHEMBL1201862, “PubChem BioAssay data set” (2004):
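Each compound was tested at five concentrations against cells in 96-well plates for 48 hours. Abbreviation: GI50, concentration required for 50% inhibition of growth.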 The source made the active and inactive calls. Cut-off read from the data, not from the text of the source: active = GI50 up to about 1.1 µM and inactive = higher.

Experiments:
Experiment in all cases: growth of human tumour cells (NCI), 48 h
786-0 = tested on: 786-0
A498 = tested on: A498
A549 = tested on: A549
ACHN = tested on: ACHN
CAKI-1 = tested on: CAKI-1
CCRF-CEM = tested on: CCRF-CEM
COLO 205 = tested on: COLO 205
DLD-1 = tested on: DLD-1
DMS-114 = tested on: DMS-114
EKVX = tested on: EKVX
HCC 2998 = tested on: HCC 2998
HCT-116 = tested on: HCT-116
HCT-15 = tested on: HCT-15
HL-60 = tested on: HL-60
HOP-18 = tested on: HOP-18
HOP-62 = tested on: HOP-62
HOP-92 = tested on: HOP-92
HT-29 = tested on: HT-29
IGROV-1 = tested on: IGROV-1
K562 = tested on: K562
KM-20L2 = tested on: KM-20L2
KM12 = tested on: KM12
LOX IMVI = tested on: LOX IMVI
LXFL 529 = tested on: LXFL 529
M14 = tested on: M14
M19-MEL = tested on: M19-MEL
MOLT-4 = tested on: MOLT-4
Malme-3M = tested on: Malme-3M
NCI-H226 = tested on: NCI-H226
NCI-H23 = tested on: NCI-H23
NCI-H460 = tested on: NCI-H460
NCI-H522 = tested on: NCI-H522
OVCAR-3 = tested on: OVCAR-3
OVCAR-4 = tested on: OVCAR-4
OVCAR-5 = tested on: OVCAR-5
OVCAR-8 = tested on: OVCAR-8
RPMI-8226 = tested on: RPMI-8226
RXF 393 = tested on: RXF 393
RXF 631 = tested on: RXF 631
SF-268 = tested on: SF-268
SF-295 = tested on: SF-295
SF-539 = tested on: SF-539
SK-MEL-28 = tested on: SK-MEL-28
SK-MEL-2 = tested on: SK-MEL-2
SK-MEL-5 = tested on: SK-MEL-5
SK-OV-3 = tested on: SK-OV-3
SN12C = tested on: SN12C
SNB-19 = tested on: SNB-19
SNB-75 = tested on: SNB-75
SNB-78 = tested on: SNB-78
SR = tested on: SR
SW-620 = tested on: SW-620
TK-10 = tested on: TK-10
U-251 = tested on: U-251
UACC-257 = tested on: UACC-257
UACC-62 = tested on: UACC-62
UO-31 = tested on: UO-31
XF498 = tested on: XF498

In the case of `CCCCOC(=O)CNC(=O)OC/C=C/C#CC#C/C=C/COC(=O)NCC(=O)OCCCC`, the GI50 (786-0) is reported as 68.7 µM (inactive), the GI50 (A498) is reported as > 10 µM (inactive) and the GI50 (A549) is reported as > 10 µM (inactive). The GI50 (ACHN) was > 10 µM (inactive), the GI50 (CAKI-1) was > 10 µM (inactive) and the GI50 (CCRF-CEM) was > 10 µM (inactive). The GI50 (COLO 205) was > 10 µM (inactive), the GI50 (DLD-1) was > 10 µM (inactive) and the GI50 (DMS-114) was > 10 µM (inactive). The GI50 (EKVX) was > 10 µM (inactive), the GI50 (HCC 2998) was > 10 µM (inactive) and the GI50 (HCT-116) was > 10 µM (inactive). For the same compound, the GI50 (HCT-15) was greater than 10 µM, the GI50 (HL-60) was > 10 µM (inactive) and the GI50 (HOP-18) was > 10 µM (inactive). The GI50 (HOP-62) was > 10 µM (inactive), the GI50 (HOP-92) was > 10 µM (inactive) and the GI50 (HT-29) was > 10 µM (inactive). For the same compound, the GI50 (IGROV-1) was > 10 µM (inactive), the GI50 (K562) was > 10 µM (inactive) and the GI50 (KM-20L2) was > 10 µM (inactive). For the same compound, the GI50 (KM12) was > 10 µM (inactive), the GI50 (LOX IMVI) was > 10 µM (inactive) and the GI50 (LXFL 529) was > 10 µM (inactive). For the same compound, the GI50 (M14) was > 10 µM (inactive), the GI50 (M19-MEL) was > 10 µM (inactive) and the GI50 (MOLT-4) was > 10 µM (inactive). For the same compound, the GI50 (Malme-3M) was > 10 µM (inactive), the GI50 (NCI-H226) was > 10 µM (inactive) and the GI50 (NCI-H23) was > 10 µM (inactive). For the same compound, the GI50 (NCI-H460) was > 10 µM (inactive), the GI50 (NCI-H522) was > 10 µM (inactive) and the GI50 (OVCAR-3) was > 10 µM (inactive). For the same compound, the GI50 (OVCAR-4) was > 10 µM (inactive), the GI50 (OVCAR-5) was > 10 µM (inactive) and the GI50 (OVCAR-8) was > 10 µM (inactive). For the same compound, the GI50 (RPMI-8226) was > 10 µM (inactive), the GI50 (RXF 393) was > 10 µM (inactive) and the GI50 (RXF 631) was > 10 µM (inactive). For the same compound, the GI50 (SF-268) was > 10 µM (inactive), the GI50 (SF-295) was > 10 µM (inactive) and the GI50 (SF-539) was > 10 µM (inactive). For the same compound, the GI50 (SK-MEL-28) was > 10 µM (inactive), the GI50 (SK-MEL-2) was > 10 µM (inactive) and the GI50 (SK-MEL-5) was > 10 µM (inactive). For the same compound, the GI50 (SK-OV-3) was > 10 µM (inactive), the GI50 (SN12C) was > 10 µM (inactive) and the GI50 (SNB-19) was > 10 µM (inactive). The GI50 (SNB-75) was 27 µM (inactive), the GI50 (SNB-78) was > 10 µM (inactive) and the GI50 (SR) was > 10 µM (inactive). For the same compound, the GI50 (SW-620) was > 100 µM (inactive), the GI50 (TK-10) was > 10 µM (inactive) and the GI50 (U-251) was > 10 µM (inactive). The GI50 (UACC-257) was > 10 µM (inactive), the GI50 (UACC-62) was > 10 µM (inactive) and the GI50 (UO-31) was > 10 µM (inactive). The GI50 (XF498) was > 10 µM (inactive).

For `COc1ccc(/C(C)=N/NC(N)=S)c(OC)c1`, the GI50 (786-0) was > 100 µM (inactive), the GI50 (A498) was > 100 µM (inactive) and the GI50 (A549) was > 100 µM (inactive). For the same compound, the GI50 (ACHN) was > 100 µM (inactive), the GI50 (CAKI-1) was > 100 µM (inactive) and the GI50 (CCRF-CEM) was > 100 µM (inactive). For the same compound, the GI50 (COLO 205) was > 100 µM (inactive), the GI50 (DLD-1) was > 100 µM (inactive) and the GI50 (DMS-114) was 97.1 µM (inactive). For the same compound, the GI50 (EKVX) was 63.4 µM (inactive), the GI50 (HCC 2998) was > 100 µM (inactive) and the GI50 (HCT-116) was > 100 µM (inactive). For the same compound, the GI50 (HCT-15) was greater than 100 µM, the GI50 (HL-60) was 51.3 µM (inactive) and the GI50 (HOP-18) was > 100 µM (inactive). For the same compound, the GI50 (HOP-62) was > 100 µM (inactive), the GI50 (HOP-92) was > 100 µM (inactive) and the GI50 (HT-29) was > 100 µM (inactive). The GI50 (IGROV-1) was > 100 µM (inactive), the GI50 (K562) was > 100 µM (inactive) and the GI50 (KM-20L2) was > 100 µM (inactive). The GI50 (KM12) was > 100 µM (inactive), the GI50 (LOX IMVI) was > 100 µM (inactive) and the GI50 (LXFL 529) was > 100 µM (inactive). The GI50 (M14) was > 100 µM (inactive), the GI50 (M19-MEL) was > 100 µM (inactive) and the GI50 (MOLT-4) was > 100 µM (inactive). The GI50 (Malme-3M) was > 100 µM (inactive), the GI50 (NCI-H226) was > 100 µM (inactive) and the GI50 (NCI-H23) was > 100 µM (inactive). The GI50 (NCI-H460) was > 100 µM (inactive), the GI50 (NCI-H522) was 18.4 µM (inactive) and the GI50 (OVCAR-3) was > 100 µM (inactive). For the same compound, the GI50 (OVCAR-5) was > 100 µM (inactive), the GI50 (OVCAR-8) was > 100 µM (inactive) and the GI50 (RPMI-8226) was > 100 µM (inactive). The GI50 (RXF 393) was > 100 µM (inactive), the GI50 (RXF 631) was > 100 µM (inactive) and the GI50 (SF-268) was > 100 µM (inactive). For the same compound, the GI50 (SF-295) was > 100 µM (inactive), the GI50 (SF-539) was > 100 µM (inactive) and the GI50 (SK-MEL-28) was > 100 µM (inactive). For the same compound, the GI50 (SK-MEL-2) was > 100 µM (inactive), the GI50 (SK-MEL-5) was > 100 µM (inactive) and the GI50 (SK-OV-3) was > 100 µM (inactive). The GI50 (SN12C) was > 100 µM (inactive), the GI50 (SNB-19) was > 100 µM (inactive) and the GI50 (SNB-75) was > 100 µM (inactive). For the same compound, the GI50 (SNB-78) was > 100 µM (inactive), the GI50 (SR) was > 100 µM (inactive) and the GI50 (SW-620) was 43.3 µM (inactive). For the same compound, the GI50 (TK-10) was > 100 µM (inactive), the GI50 (U-251) was 49.1 µM (inactive) and the GI50 (UACC-257) was > 100 µM (inactive). The GI50 (UACC-62) was > 100 µM (inactive), the GI50 (UO-31) was > 100 µM (inactive) and the GI50 (XF498) was > 100 µM (inactive).
